± gives the expanded uncertainty stated by the source. Values belong to the molecule of their own block, whether it stands above or below them.
Tests used:
[1] = 298.15 K; 101.33 kPa; Liquid
[2] = xn = mol fraction of the nth substance listed; details: 298.15 K, 101.3 kPa, Liquid

mass density [1]: 719.17 ± 0.96 kg/m3
SMILES: CC(C)OC(C)C [diisopropyl ether]

mass density ([2]; x1 = 0.1072): 774.5 ± 0.5 kg/m3
mass density ([2]; x1 = 0.2007): 766.1 ± 0.5 kg/m3
mass density ([2]; x1 = 0.3086): 757.6 ± 0.5 kg/m3
mass density ([2]; x1 = 0.403): 751 ± 0.5 kg/m3
mass density ([2]; x1 = 0.4811): 746 ± 0.6 kg/m3
mass density ([2]; x1 = 0.6142): 738.3 ± 0.6 kg/m3
mass density ([2]; x1 = 0.6993): 733.8 ± 0.6 kg/m3
mass density ([2]; x1 = 0.7432): 731.7 ± 0.6 kg/m3
mass density ([2]; x1 = 0.7863): 729.6 ± 0.6 kg/m3
mass density ([2]; x1 = 0.8965): 724.4 ± 0.6 kg/m3
mass density ([2]; x1 = 0.9129): 723.6 ± 0.6 kg/m3
SMILES: CC(C)OC(C)C [diisopropyl ether] + CCO

mass density [1]: 785.6 ± 0.24 kg/m3
SMILES: CCO [ethanol]

The next lines start with the molecule.

SMILES: OCC(F)(F)F [2,2,2-trifluoroethanol]
mass density [1]: 1382.4 ± 1.5 kg/m3

SMILES: OCC(F)(F)F [2,2,2-trifluoroethanol] + CC(C)OC(C)C
mass density ([2]; x2 = 0.0511): 1320 ± 1 kg/m3
mass density ([2]; x2 = 0.1069): 1258.5 ± 0.9 kg/m3
mass density ([2]; x2 = 0.1922): 1175.7 ± 0.7 kg/m3
mass density ([2]; x2 = 0.2483): 1127.3 ± 0.6 kg/m3
mass density ([2]; x2 = 0.2968): 1088.9 ± 0.5 kg/m3
mass density ([2]; x2 = 0.4021): 1013.8 ± 0.4 kg/m3
mass density ([2]; x2 = 0.4927): 957.1 ± 0.5 kg/m3
mass density ([2]; x2 = 0.6059): 894 ± 0.5 kg/m3
mass density ([2]; x2 = 0.6997): 846.9 ± 0.5 kg/m3
mass density ([2]; x2 = 0.8024): 799.8 ± 0.6 kg/m3
mass density ([2]; x2 = 0.9113): 754.2 ± 0.6 kg/m3

SMILES: FC(F)(F)c1ccccc1 [(trifluoromethyl)benzene]
mass density [1]: 1182.18 ± 0.48 kg/m3

SMILES: FC(F)(F)c1ccccc1 [(trifluoromethyl)benzene] + CCO
mass density ([2]; x1 = 0.1051): 864 ± 0.4 kg/m3
mass density ([2]; x1 = 0.1999): 921.7 ± 0.3 kg/m3
mass density ([2]; x1 = 0.2454): 945.8 ± 0.3 kg/m3
mass density ([2]; x1 = 0.3059): 975.2 ± 0.2 kg/m3
mass density ([2]; x1 = 0.4057): 1017.5 ± 0.2 kg/m3
mass density ([2]; x1 = 0.5022): 1052.8 ± 0.3 kg/m3
mass density ([2]; x1 = 0.5855): 1079.7 ± 0.3 kg/m3
mass density ([2]; x1 = 0.7052): 1113.7 ± 0.4 kg/m3
mass density ([2]; x1 = 0.7886): 1134.9 ± 0.4 kg/m3
mass density ([2]; x1 = 0.9032): 1161.5 ± 0.4 kg/m3

Source: the NIST ThermoML archive (doi:10.1016/j.jct.2006.09.006)
